Results as given in patent US10364263B2, “Cyclic phosphates and cyclic phosphoramidates for the treatment of neurologic disorders” (Retrophin, Inc., priority 2015, dated 2019).

Tests used:
[1] = system: PANK2 silenced human neuroblastoma IMR32 cells (PANK2−/−); assay: Coenzyme A assay in PANK2 silenced cells (LC-MS quantification of free CoA); format: cell-based; conditions: compound added twice (24 h + 24 h), relative to 0.1% DMSO controls
Procedure, shortened: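 Free intracellular CoA was measured by positive-mode LC-MS/MS of 20% TFA extracts, taking 2 μl per 10^6 cells as intracellular volume. Cells were IMR32 with stable lentiviral PANK2 knockdown, dosed twice 24 h apart (48 h total, 0.1% DMSO). Output is fold increase over vehicle.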

[2] = Stability in human plasma; format: in vitro ADME; conditions: 37° C.
Method: (§1) Compounds and positive control samples were dissolved in 100% DMSO at 3 mM. To investigate the stability of the test compounds in plasma, samples were made by diluting test compounds into plasma from the stock solutions to obtain a test compound concentration of 3 μM (0.1% DMSO). Before addition of a test compound, 990 μl of plasma were preincubated at 37° C. for 5 min in eppendorf. After addition of a test compound, 70 μl for each time point were transferred to a 96-deepwell plate, previously warmed at 37° C. in a DUBNOFF water bath. Each compound was tested at five time points, in duplicate (10, 20, 30, 40 and 60 min). At each time point, an aliquot of 50 μl was taken and transferred to a new 96-deepwell plate, and the reaction was stopped with 200 μl of 100% acetonitrile containing 0.1% formic acid and the appropriate internal standard. Then samples were centrifuged at 1100×g for 30 min at +4° C. and supernatants were transferred to a new 96-deepwell plate. Samples were evaporated under N2 and reconstituted in H2O/ACN 0.1% Formic Acid (98:2). Analysis was performed without a calibration curve (Acquity UPLC-Waters; SciexAPI4000). Time 0 was obtained by adding acetonitrile before addition of the test compound.

[3] = Stability in mouse plasma; format: in vitro ADME; conditions: mouse, plasma; for t1/2, Mouse Plasma, Diastereoisomer B: 3 µM
Method: as §1

[4] = human, plasma, Diastereoisomer A (upfield shift in 31P NMR), read-out: t1/2, Human Plasma, Diastereoisomer A (converted)
[5] = human, plasma, Diastereoisomer B, read-out: t1/2, Human Plasma, Diastereoisomer B (converted)

Compound | PANK2−/− CoA (Fold Increase): fold increase in Coenzyme A (CoA) levels relative to controls [1] | half-life at 3 µM [2, 4] | half-life at 3 µM [2, 5] | half-life at 3 µM [3] | t1/2, Mouse Plasma, Diastereoisomer B [3] | half-life at 3 µM ([2]; Diastereoisomer A (upfield shift in 31P NMR), read-out: t1/2, Human Plasma, Diastereoisomer A (converted)) | t1/2, Human Plasma, Diastereoisomer B ([2]; Diastereoisomer B, 3 μM)
Cc1cc(COC(=O)CCNC(=O)[C@@H]2OP(=O)(OCOC(=O)C(C)(C)C)OCC2(C)C)no1 (single isomer, unassigned) [Compound No. 74] | 176 Fold Increase | 46.8 min | < 9.6 min | < 9.6 min | <9.6 min |  | 
CC(C)(C)C(=O)OCO[P@@]1(=O)OCC(C)(C)[C@H](C(=O)NCCC(=O)OCc2cncs2)O1 (single isomer, unassigned) [Compound No. 79] | 133.6 Fold Increase | > 60 min | < 9.6 min | < 9.6 min | <9.6 min |  | 
CC(C)(C)C(=O)OCO[P@@]1(=O)OCC(C)(C)[C@H](C(=O)NCCC(=O)OCCc2ccccn2)O1 (single isomer, unassigned) [Compound No. 82] | 99.82 Fold Increase | 28.8 min |  | < 9.6 min |  |  | 
CCOCCCOC(=O)CCNC(=O)[C@@H]1O[P@@](=O)(OCOC(=O)C(C)(C)C)OCC1(C)C (single isomer, unassigned) [Compound No. 96] | 29.43 Fold Increase | 16.8 min |  | < 9.6 min |  |  | 
COC(=O)CCNC(=O)[C@@H]1OP(=O)(N[C@H](C)C(=O)OCc2cnccn2)OCC1(C)C (stereo in doubt) [compound 42, methyl 3-((2S,4R)-5,5-dimethyl-2-oxido-2-(((R)-1-oxo-1-(pyrazin-2-ylmethoxy)propan-2-yl)amino)-1,3,2-dioxaphosphinane-4-carboxamido)propanoate] | 2.42 Fold Increase | > 60 min |  | < 9.6 min |  |  | 
CC(C)(C)C(=O)OCO[P@@]1(=O)OCC(C)(C)[C@H](C(=O)NCCC(=O)OCC2CCC(=O)N2)O1 (stereo partly drawn) [Compound No. 2-113, (((2S,4R)-5,5-dimethyl-2-oxido-4-((3-oxo-3-((5-oxopyrrolidin-2-yl)methoxy)propyl)carbamoyl)-1,3,2-dioxaphosphinan-2-yl)oxy)methyl pivalate] | 7.93 Fold Increase | 33.6 min |  | < 9.6 min |  |  | 
COC(=O)CCNC(=O)[C@@H]1OP(=O)(OCOC(=O)c2ccncc2)OCC1(C)C (stereo partly drawn) [Compound No. 72, (((4R)-4-((3-methoxy-3-oxopropyl)carbamoyl)-5,5-dimethyl-2-oxido-1,3,2-dioxaphosphinan-2-yl)oxy)methyl isonicotinate] | 34.64 Fold Increase | < 9.6 min | < 9.6 min | < 9.6 min | <9.6 min |  | 
COC(=O)CCNC(=O)[C@@H]1OP(=O)(N[C@@H](C)C(=O)OC2CCOC2)OCC1(C)C (stereo partly drawn) [compound 34, methyl 3-((4R)-5,5-dimethyl-2-oxido-2-(((2S)-1-oxo-1-((tetrahydrofuran-3-yl)oxy)propan-2-yl)amino)-1,3,2-dioxaphosphinane-4-carboxamido)propanoate] | 1.3 Fold Increase |  |  |  |  | > 60 min | >60 min
COC(=O)CCNC(=O)[C@@H]1O[P@@](=O)(N[C@@H](C)C(=O)OCCc2ccccn2)OCC1(C)C [compound 35, methyl 3-((2R,4R)-5,5-dimethyl-2-oxido-2-(((S)-1-oxo-1-(2-(pyridin-2-yl)ethoxy)propan-2-yl)amino)-1,3,2-dioxaphosphinane-4-carboxamido)propanoate] | 2.23 Fold Increase | > 60 min | 53.4 min |  |  |  | 
COC(=O)CCNC(=O)[C@@H]1OP(=O)(N[C@@H](Cc2cccnc2)C(=O)OCCc2ccccc2)OCC1(C)C (stereo partly drawn) [compound 36, phenethyl (2S)-2-(((4R)-4-((3-methoxy-3-oxopropyl)carbamoyl)-5,5-dimethyl-2-oxido-1,3,2-dioxaphosphinan-2-yl)amino)-3-(pyridin-3-yl)propanoate] | 2.44 Fold Increase | > 60 min | > 60 min |  |  |  | 
C[C@H](NP1(=O)OCC(C)(C)[C@H](C(=O)NCCC(=O)OCC2CC2)O1)C(=O)OCCc1ccccc1 (stereo partly drawn) [compound 37, cyclopropylmethyl 3-((4R)-5,5-dimethyl-2-oxido-2-(((S)-1-oxo-1-phenethoxypropan-2-yl)amino)-1,3,2-dioxaphosphinane-4-carboxamido)propanoate] | 1.9 Fold Increase | > 60 min | > 60 min |  |  |  | 
C[C@H](NP1(=O)OCC(C)(C)[C@H](C(=O)NCCC(=O)OCc2ccncc2)O1)C(=O)OCCc1ccccc1 (stereo partly drawn) [compound 38, phenethyl ((4R)-5,5-dimethyl-2-oxido-4-((3-oxo-3-(pyridin-4-ylmethoxy)propyl)carbamoyl)-1,3,2-dioxaphosphinan-2-yl)-L-alaninate] | 2.76 Fold Increase | > 60 min | > 60 min |  |  |  | 
C[C@H](NP1(=O)OCC(C)(C)[C@H](C(=O)NCCC(=O)OCCN2CCCC2)O1)C(=O)OCCc1ccccc1 (stereo partly drawn) [compound 44, phenethyl ((4R)-5,5-dimethyl-2-oxido-4-((3-oxo-3-(2-(pyrrolidin-1-yl)ethoxy)propyl)carbamoyl)-1,3,2-dioxaphosphinan-2-yl)-L-alaninate] | 1.62 Fold Increase | > 60 min |  |  |  |  | 
COC(=O)CCNC(=O)[C@@H]1O[P@](=O)(N[C@H](C(=O)OCCc2ccccc2)C(C)C)OCC1(C)C [compound 45, phenethyl ((2S,4R)-4-((3-methoxy-3-oxopropyl)carbamoyl)-5,5-dimethyl-2-oxido-1,3,2-dioxaphosphinan-2-yl)-L-valinate] | 1.3 Fold Increase | > 60 min |  |  |  |  | 
C[C@H](NP1(=O)OCC(C)(C)[C@H](C(=O)NCCC(=O)OC[C@H]2CCC(=O)N2)O1)C(=O)OCCc1ccccc1 (stereo partly drawn) [compound 47, ((R)-5-oxopyrrolidin-2-yl)methyl 3-((4R)-5,5-dimethyl-2-oxido-2-(((S)-1-oxo-1-phenethoxypropan-2-yl)amino)-1,3,2-dioxaphosphinane-4-carboxamido)propanoate] | 1.38 Fold Increase | > 60 min |  |  |  |  | 
CC(C)[C@H](N[P@]1(=O)OCC(C)(C)[C@H](C(=O)NCCC(=O)OC(C)(C)C)O1)C(=O)OCCc1ccccc1 [compound 49, phenethyl ((2S,4R)-4-((3-(tert-butoxy)-3-oxopropyl)carbamoyl)-5,5-dimethyl-2-oxido-1,3,2-dioxaphosphinan-2-yl)-L-valinate] | 1.09 Fold Increase | > 60 min |  |  |  |  | 
